Experimental data: patent US20120129927A1, “New Anthraquinone Derivatives” (SEALIFE PHARMA GMBH, priority 2009, published 2012)
In brackets after ≈: the same amount, converted by molar mass. Entries after “also recorded” stand apart in the source; their conditions may differ. Like-named read-outs stand apart in the source and are kept apart here.

Tests used:
[1] = test system: Enterococcus faecalis or faecium; assay: MIC test (titration method, EUCAST); format: cell-based; conditions: for MIC: read-out: MHK (MIC) EK
Method: (§1) The activities of the novel compounds were tested in two different screening systems. The antibacterial and antifungal activities were examined by means of an MIC test, MIC standing for “minimal inhibitory concentration” and referring to the lowest concentration of a substance at which no proliferation of microorganisms can be observed with the naked eye. The MIC is determined by means of a so called titration method in which the substance is diluted and, subsequently, the pathogen is added to it.
(§2) Usually, this method is applied in order to determine the concentration of an antibiotic which only just inhibits the growth of a bacterial strain. The MIC is indicated in micrograms per milliliter (μg/ml), and the dilutions are conventionally carried out in log 2 steps. Herein, a starting concentration of 250 μg/ml was diluted several times, to the double volume in each case, resulting in test concentrations of 250 μg/ml, 125 μg/ml, 62.5 μg/ml, 31.2 μg/ml, 15.6 μg/ml, 7.8 μg/ml, etc. Thus, lower values indicate a better activity as an anti-infective.
(§3) The tests were carried out according to the standards of EUCAST (European Committee for Antimicrobial Susceptibility Testing) and according to the AFST-protocol (“Antifungal Susceptibility Testing” protocol) of the European Society of Clinical Microbiology and Infectious Diseases (ESCMID).
(§4) In the following Table 3, the test results indicating the anti-infective action of 3-O-acetyl altersolanol M, alterporriol I and J as well as of some known and structurally similar comparative substances against some multi-resistant bacteria and fungi (all of which were kindly placed at our disposal by Prof Georgopulos from the Medical University of Vienna). The data constituting averages of the values obtained in multiple test runs.

Klebsiella sp. = assay: MIC test (titration method, EUCAST); format: cell-based; conditions: multi-resistant Klebsiella sp., averages of multiple test runs
Method: as §1, §2, §3, §4

Staphylococcus epidermis = assay: MIC test (titration method, EUCAST); format: cell-based; conditions: for MIC: read-out: MHK (MIC) SE
Method: as §1, §2, §3, §4

Streptococcus pneumoniae = assay: MIC test (titration method, EUCAST); format: cell-based; conditions: for MIC: read-out: MHK (MIC) STR
Method: as §1, §2, §3, §4

[2] = test system: methicillin-resistant Staphylococcus aureus; assay: MIC test (titration method, EUCAST); format: cell-based; conditions: for MIC: MRSA, read-out: MHK (MIC) MRSA
Method: as §1, §2, §3, §4

[3] = test system: Aspergillus fumigatus or faecalis; assay: MIC test (AFST protocol); format: cell-based; conditions: multi-resistant Aspergillus fumigatus or faecalis, averages of multiple test runs; for MIC: read-out: MHK (MIC) ASP
Method: as §1, §2, §3, §4

bacteria and fungi = conditions: Aly et al., Phytochemistry 69; cited from earlier work
E. coli = assay: MIC test (titration method, EUCAST); format: cell-based; conditions: Escherichia coli, read-out: MHK (MIC) EC
Method: as §1, §2, §3, §4

[4] = test system: Gram-positive bacteria and the Gram-negative species Pseudomonas aeruginosa; conditions: Okamura et al., Phytochemistry 42(1); cited from earlier work
[5] = Yagi et al., Phytochemistry 34(4); cited from earlier work
Pseudomonas aeruginosa = assay: MIC test (titration method, EUCAST); format: cell-based; conditions: multi-resistant Pseudomonas aeruginosa, averages of multiple test runs
Method: as §1, §2, §3, §4

melanoma cells [6] = assay: Alamar Blue assay using melanoma cells; format: cell-based; conditions: for inhibition at 10 µg/mL: read-out: inhibition / reduction of the number of melanoma cells
Method: In this test, the dye resazurin is used as an indicator for measuring the cytotoxicity of substances. […] Depending on the degree of their toxicity, cytotoxic agents decelerate or stop this reduction.
In the course of this experiment, melanoma cells were treated with several concentrations of 3-O-acetyl altersolanol M, i.e. with 1, 10, and 50 μg/ml, with altersolanol K and alterporriol F as comparative substances, as well as with alterporriol I+J, i.e. compound (5) of the present invention, at respective concentrations of 10 μg/ml, and incubated for 48 h, whereafter the samples' fluorescence was determined spectrophotometrically at 570/600 nm, the fluorescence being proportional to the number of surviving cells in the samples.
The measurement results were related to the fluorescence of a blank, to which no cytotoxic agent had been added, and are shown in a graph in FIG. 1.

[7] = Electrical Cell Substrate Impedance Sensing (ECIS) test; format: cell-based; conditions: results not indicated, comparison only
melanoma cells [8] = assay: Three-dimensional tumor test in matrix gel; format: cell-based; conditions: 30, 50 or 3,000 μg/ml, 37° C.
Method: In addition to the above two-dimensional test, the cytotoxic action of 3-O-acetyl altersolanol M was also examined in an innovative three-dimensional test system. In this test, small tumors are grown in a matrix gel, in which the activity of an anti-cancer agent may be directly tested by adding said agent at different concentrations. A blank, i.e. melanoma cells without any cytotoxic agent, and an equal amount of melanoma cells together with 30, 50 or 3,000 μg/ml of 3-O-acetyl altersolanol M were incubated in the matrix gel for 120 hours at 37° C.

[9] = multi-resistant Enterococcus faecalis or faecium, averages of multiple test runs
[10] = multi-resistant Staphylococcus epidermis, averages of multiple test runs
[11] = multi-resistant Streptococcus pneumoniae, averages of multiple test runs
[12] = methicillin-resistant Staphylococcus aureus, averages of multiple test runs
[13] = multi-resistant E. coli, averages of multiple test runs
[14] = 10 μg/ml, 48 h, relative to blank

Which results are given for `COc1cc(O)c2c(c1)C(=O)[C@H]1C[C@](C)(O)[C@H](O)C[C@@H]1[C@H]2O` [Altersolanol J]?
MHK (MIC) EK [1, 9]: 31.2 µg/mL; MHK (MIC) KL (Klebsiella sp.): 125 µg/mL; MHK (MIC) SE (Staphylococcus epidermis; [10]): 62.5 µg/mL; MHK (MIC) STR (Streptococcus pneumoniae; [11]): 15.6 µg/mL; MHK (MIC) MRSA [2, 12]: 62.5 µg/mL; MHK (MIC) ASP [3]: 125 µg/mL; activity against bacteria and fungi (bacteria and fungi): do not show any activity against bacteria and fungi

Which MIC (E. coli; [13]) does the source give for `COc1cc(O)c2c(c1)C(=O)c1cc(C)c(O)cc1C2=O` [Macrosporin] here?
Its MIC is 62.5 µg/mL (≈ 220 µM).

What about the MIC (Staphylococcus epidermis; [10]) of the same molecule?
The MIC was 62.5 µg/mL (≈ 220 µM).

And the MIC [2, 12]?
The MIC was 62.5 µg/mL (≈ 220 µM).

With `COc1cc(O)c2c(c1)[C@H](O)[C@H]1C[C@](C)(O)[C@H](O)C[C@@H]1C2=O` [tetrahydroaltersolanol B] as the molecule, how does the “effect against Gram-positive bacteria and Pseudomonas aeruginosa” value [4] read?
The value was “do not disclose any effect”.

Which results are given for `COC1=CC(=O)c2c(O)c3c(c(O)c2C1=O)C[C@](C)(O)[C@H](O)[C@H]3O` [Bostrycin]?
MIC (Staphylococcus epidermis; [10]): 125 µg/mL (≈ 372 µM); MIC (Streptococcus pneumoniae; [11]): 62.5 µg/mL (≈ 186 µM); MIC [2, 12]: 125 µg/mL (≈ 372 µM)

For altersolanol E, which anti-microbial activity [5] is on record?
The anti-microbial activity was “anti-microbial activity; also recorded: completely ineffective”.

What does the source list for Indole carbaldehyde (carboxaldehyde)?
MHK (MIC) PS (Pseudomonas aeruginosa): 125 µg/mL; MHK (MIC) STR (Streptococcus pneumoniae; [11]): 62.5 µg/mL

Which MIC [1, 9] does the source give for `COc1cc(O)c2c(c1-c1c(OC)cc(O)c3c1C(=O)c1cc(C)c(O)c(O)c1C3=O)C(=O)C1=C(C2=O)[C@H](O)[C@@H](O)[C@@](C)(O)[C@H]1O` [Example 2, 8-(4,5,6-trihydroxy-7-methyl-2-methoxy-9,10-dioxo-9H,10H-anthracen-1-yl)-(1S,2S,3R,4S)-1,2,3,4,5-pentahydroxy-7-methoxy-2-methyl-1,2,3,4-tetrahydro-9H,10H-anthracene-9,10-dione] here?
The MIC was 7.8 µg/mL (≈ 12.3 µM).

And the MIC (Staphylococcus epidermis; [10])?
The MIC was 7.8 µg/mL (≈ 12.3 µM).

And the MIC (Streptococcus pneumoniae; [11])?
The MIC was 7.8 µg/mL (≈ 12.3 µM).

What about the MIC [2, 12] of the same molecule?
The MIC was 7.8 µg/mL (≈ 12.3 µM).

And the MIC [3]?
The MIC was 125 µg/mL (≈ 197 µM).

And the “result compared with comparative substances (in words)” value (melanoma cells [6]; 10 μg/ml, 48 h)?
Its value is “slightly better results than the two comparative examples”.

And the inhibition at 10 µg/mL (melanoma cells [6]; [14])?
The inhibition at 10 µg/mL was > 10%.

With `COc1cc(O)c2c(c1)C(=O)C1=C(C[C@@H](O)[C@@](C)(O)[C@@H]1O)C2=O` [altersolanol C] as the molecule, how does the anti-microbial activity [5] read?
Its anti-microbial activity is “anti-microbial activity”.

For `COc1cc(O)c2c(c1)C(=O)C1=C(C2=O)[C@@H](O)[C@H](OC(C)=O)[C@@](C)(O)[C@@H]1O` [Example 1, (1R,2S,3S,4R)-3-acetoxy-1,2,4,5-tetrahydroxy-7-methoxy-2-methyl-1,2,3,4-tetrahydroanthracene-9,10-dione], which MIC (E. coli; [13]) is on record?
The MIC was 125 µg/mL (≈ 330 µM).

What about the MIC [1, 9] of the same molecule?
The MIC was 7.8 µg/mL (≈ 20.6 µM).

And the MIC (Klebsiella sp.; read-out: MHK (MIC) KL)?
Its MIC is 125 µg/mL (≈ 330 µM).

And the MIC (Pseudomonas aeruginosa; read-out: MHK (MIC) PS)?
Its MIC is 125 µg/mL (≈ 330 µM).

What about the MIC (Staphylococcus epidermis; [10]) of the same molecule?
Its MIC is 7.8 µg/mL (≈ 20.6 µM).

And the MIC (Streptococcus pneumoniae; [11])?
Its MIC is 7.8 µg/mL (≈ 20.6 µM).

And the MIC [2, 12]?
Its MIC is 7.8 µg/mL (≈ 20.6 µM).

What about the MIC [3] of the same molecule?
Its MIC is 62.5 µg/mL (≈ 165 µM).

What about the inhibition at 1 µg/mL (melanoma cells [6]; 1 μg/ml, 48 h, relative to blank, read-out: inhibition of the number of surviving cells) of the same molecule?
Its inhibition at 1 µg/mL is > 10%.

What about the inhibition at 10 µg/mL (melanoma cells [6]; [14]) of the same molecule?
The inhibition at 10 µg/mL was ~50%.

And the “surviving cells (in words)” value (melanoma cells [6]; 50 μg/ml, 48 h)?
Its value is “hardly possible to detect any surviving cells”.

And the “cytotoxic effectiveness relative to alterporriol I/J” value (melanoma cells [6]; Alamar Blue, melanoma cells)?
The value was “at least 10 times”.

What about the “ECIS result (in words)” value [7] of the same molecule?
Its value is “clearly better results than alterporriol I/J”.

And the “tumor appearance after 24 hours” value (melanoma cells [8]; 24 hours)?
Its value is “signs of degeneration”.

What about the “tumor size after 120 hours” value (melanoma cells [8]; 120 hours) of the same molecule?
Its value is “clearly reduced in size”.

Which anti-microbial activity [5] does the source give for altersolanol F here?
The anti-microbial activity was “completely ineffective”.

Which results are given for `COc1cc(O)c2c(c1)C(=O)C1=C(C2=O)[C@H](O)[C@@H](O)[C@@](C)(O)[C@@H]1O` [Altersolanol A, 7-methoxy-2-methyl-(1R,2S,3R,4S)-1,2,3,4-tetrahydro-1,2,3,4,5-pentahydroxy-anthracene-9,10-dione]?
MIC (E. coli; [13]): 62.5 µg/mL (≈ 186 µM); MIC [1, 9]: 15.6 µg/mL (≈ 46.4 µM); MIC (Staphylococcus epidermis; [10]): 7.8 µg/mL (≈ 23.2 µM); MIC (Streptococcus pneumoniae; [11]): 7.8 µg/mL (≈ 23.2 µM); MIC [2, 12]: 7.8 µg/mL (≈ 23.2 µM); MIC [3]: 7.8 µg/mL (≈ 23.2 µM); activity against bacteria and fungi (bacteria and fungi): the most efficient of the tested substances; anti-microbial activity [5]: anti-microbial activity

With `COc1cc(O)c2c(c1)[C@H](O)[C@@H]1[C@@H](C2=O)[C@H](O)[C@@H](O)[C@@](C)(O)[C@@H]1O` [Ampelanol] as the molecule, how does the “activity against bacteria and fungi” value (bacteria and fungi) read?
The value was “do not show any activity against bacteria and fungi”.

For altersolanol D, which anti-microbial activity [5] is on record?
The anti-microbial activity was “completely ineffective”.

Which “MHK (MIC) STR” value (Streptococcus pneumoniae; [11]) does the source give for Macrosporin sulfate here?
The value was 31.2 µg/mL.

Which anti-microbial activity [5] does the source give for `COc1cc(O)c2c(c1)C(=O)C1=C(C[C@@H](O)[C@@](C)(O)C1)C2=O` [altersolanol B] here?
The anti-microbial activity was “anti-microbial activity”.

Which “activity against bacteria and fungi” value (bacteria and fungi) does the source give for alterporriol E here?
Its value is “do not show any activity against bacteria and fungi”.

Which results are given for Alterporriol A + B?
MHK (MIC) EK [1, 9]: 15.6 µg/mL; MHK (MIC) SE (Staphylococcus epidermis; [10]): 15.6 µg/mL; MHK (MIC) STR (Streptococcus pneumoniae; [11]): 7.8 µg/mL; MHK (MIC) MRSA [2, 12]: 15.6 µg/mL; MHK (MIC) ASP [3]: 62.5 µg/mL

For `COc1cc(O)c(C(=O)O)c(-c2cc(O)c(O)cc2C)c1` [Altenusin], which MIC (E. coli) is on record?
Its MIC is 62.5 µg/mL (≈ 215 µM).

What about the MIC ([1]; Enterococcus faecalis) of the same molecule?
Its MIC is 62.5 µg/mL (≈ 215 µM).

And the MIC (Staphylococcus epidermis; Staphylococcus)?
The MIC was 31.2 µg/mL (≈ 107 µM).

And the MIC (Streptococcus pneumoniae; Streptococcus pneumoniae)?
Its MIC is 31.2 µg/mL (≈ 107 µM).

And the MIC ([2]; Staphylococcus aureus)?
Its MIC is 31.2 µg/mL (≈ 107 µM).

Which “activity against bacteria and fungi” value (bacteria and fungi) does the source give for `COc1cc(O)c2c(c1-c1c(OC)cc(O)c3c1C(=O)C1=C(C3=O)[C@H](O)[C@@H](O)[C@@](C)(O)[C@@H]1O)C(=O)C1=C(C2=O)[C@H](O)[C@@H](O)[C@@](C)(O)[C@@H]1O` [alterporriol D] here?
The value was “do not show any activity against bacteria and fungi”.
